Results from patent US20240374609A1, “NITROSAMINE IMPURITY, VARENICLINE PHARMACEUTICAL COMPOSITION CAPABLE OF REDUCING GENERATION OF NITROSAMINE IMPURITIES AND PREPARATION AND USE THEREOF” (VIWIT PHARMACEUTICALCO., LTD., priority 2021, published 2024).

Test system: Tetranychus cinnabarinus
Test: Leaf-disc spraying method, insecticidal activity
Format: in vivo
Settings: 500 mg/L, spray 2.5 mL, investigated after 24 h, blank control 0%, read-out: mortality rate
Procedure: The bactericidal or insecticidal activity of the nitrosamine impurity compound P08 was determined according to the existing technical standards or specifications (e.g., Chinese agricultural industry standard NY/T 1156.4-2006, pesticides guidelines for laboratory bioactivity tests, bactericide, part 4: potted plant test for fungicide control of powdery mildew on wheat; Chinese agricultural industry standard NY/T 1156.5-2006, pesticides guidelines for laboratory bioactivity tests, bactericide, part 5: detached leaf test for fungicide inhibition of Rhizoctonia solani on faba bean; Chinese agricultural industry standard […], pesticides guidelines for laboratory bioactivity tests, insecticide, part 6: the immersion test for insecticide activity; Chinese agricultural industry standard NY/T 1154.9-2008, pesticides guidelines for laboratory bioactivity tests, insecticide, part 9: spraying method).
According to the Chinese agricultural industry standard NYT 1154.13-2008, pesticides guidelines for laboratory bioactivity tests, insecticide, part 13: leaf-disc spraying method, the Tetranychus cinnabarinus were inoculated on a leaf-disc of faba bean as the biological test materials. […]

Question: How did the mortality at 500 µg/mL turn out when `O=NN1CC2CC(C1)c1cc3nccnc3cc12` [P08] was run?
Answer: Its mortality at 500 µg/mL is 19.6%.
